This is an account of results in ChEMBL document CHEMBL5465560, “Selectivity Literature for EUbOPEN Chemogenomic Library” (2024).

Where only a bound is given, the exact number is not on record here.

The target of test [1] is RAC-alpha serine/threonine-protein kinase (Homo sapiens, UniProt P31749). Briefly: Selectivity interaction (KinomeScan (DiscoverX)) EUB0000607a AKT1. The conditions noted are these: at 10 µM.
Test [2] addresses Serine/threonine-protein kinase 26 (Homo sapiens, UniProt Q9P289). In words: Selectivity interaction (KinomeScan (DiscoverX)) EUB0000607a STK26. The note with it: at 10 µM.
Test [3] has as its target Protein kinase C theta type (Homo sapiens, UniProt Q04759). In words: Selectivity interaction (SelectScreen profiling (Invitrogen)) EUB0000607a PRKCQ. The conditions noted are these: at 2 µM.
In test [4] the test system is Tyrosine-protein kinase ABL1 (Homo sapiens), P00519 [T315I]. The conditions noted are these: at 10 µM.
Test [5] addresses T1, Mitogen-activated protein kinase 8 (Homo sapiens, UniProt P45983). Briefly: Selectivity interaction (KinomeScan (DiscoverX)) EUB0000229b MAPK8. The conditions noted are these: at 10 µM.
In test [6] the target is T2, Cyclin-dependent kinase-like 5 (Homo sapiens) (UniProt O76039).
T2 sequence (whole entry): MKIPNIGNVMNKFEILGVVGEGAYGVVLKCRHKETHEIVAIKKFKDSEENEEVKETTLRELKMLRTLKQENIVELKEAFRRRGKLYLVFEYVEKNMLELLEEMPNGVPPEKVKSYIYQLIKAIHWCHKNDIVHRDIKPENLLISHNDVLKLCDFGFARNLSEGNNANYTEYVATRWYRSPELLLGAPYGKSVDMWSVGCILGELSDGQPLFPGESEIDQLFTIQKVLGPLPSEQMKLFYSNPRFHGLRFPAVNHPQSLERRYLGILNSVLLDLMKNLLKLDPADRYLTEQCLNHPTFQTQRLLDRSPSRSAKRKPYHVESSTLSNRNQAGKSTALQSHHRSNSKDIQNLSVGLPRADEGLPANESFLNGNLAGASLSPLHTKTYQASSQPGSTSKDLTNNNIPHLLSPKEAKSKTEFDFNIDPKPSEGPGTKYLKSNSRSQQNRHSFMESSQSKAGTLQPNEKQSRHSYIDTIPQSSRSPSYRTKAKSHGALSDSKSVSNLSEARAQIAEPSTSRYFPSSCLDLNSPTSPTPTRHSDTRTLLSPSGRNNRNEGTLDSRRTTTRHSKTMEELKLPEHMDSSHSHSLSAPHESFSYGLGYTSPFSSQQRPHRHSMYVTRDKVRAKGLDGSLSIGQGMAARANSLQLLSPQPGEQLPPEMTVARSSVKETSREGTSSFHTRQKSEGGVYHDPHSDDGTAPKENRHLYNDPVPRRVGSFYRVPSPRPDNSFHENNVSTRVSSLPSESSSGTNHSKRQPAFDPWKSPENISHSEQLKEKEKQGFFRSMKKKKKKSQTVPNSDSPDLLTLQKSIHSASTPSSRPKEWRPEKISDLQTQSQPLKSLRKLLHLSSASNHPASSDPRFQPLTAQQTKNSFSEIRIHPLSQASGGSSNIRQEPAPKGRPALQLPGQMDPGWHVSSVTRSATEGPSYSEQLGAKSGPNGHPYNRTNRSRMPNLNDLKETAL
Briefly: Selectivity interaction (KinomeScan (DiscoverX)) EUB0000655a CDKL5. The conditions noted are these: at 10 µM.

Test [7] concerns the target Dual specificity protein kinase CLK2 (Homo sapiens, UniProt P49760). Briefly: Selectivity interaction (KinomeScan (DiscoverX)) EUB0000655a CLK2. The note with it: at 10 µM.
The target of test [8] is Serine/threonine-protein kinase SIK1 (Homo sapiens) (UniProt P57059). Briefly: Selectivity interaction (KinomeScan (DiscoverX)) EUB0001079a SIK1. The note with it: at 1 µM.
Sequence of Serine/threonine-protein kinase SIK1 (Homo sapiens) (P57059 whole entry): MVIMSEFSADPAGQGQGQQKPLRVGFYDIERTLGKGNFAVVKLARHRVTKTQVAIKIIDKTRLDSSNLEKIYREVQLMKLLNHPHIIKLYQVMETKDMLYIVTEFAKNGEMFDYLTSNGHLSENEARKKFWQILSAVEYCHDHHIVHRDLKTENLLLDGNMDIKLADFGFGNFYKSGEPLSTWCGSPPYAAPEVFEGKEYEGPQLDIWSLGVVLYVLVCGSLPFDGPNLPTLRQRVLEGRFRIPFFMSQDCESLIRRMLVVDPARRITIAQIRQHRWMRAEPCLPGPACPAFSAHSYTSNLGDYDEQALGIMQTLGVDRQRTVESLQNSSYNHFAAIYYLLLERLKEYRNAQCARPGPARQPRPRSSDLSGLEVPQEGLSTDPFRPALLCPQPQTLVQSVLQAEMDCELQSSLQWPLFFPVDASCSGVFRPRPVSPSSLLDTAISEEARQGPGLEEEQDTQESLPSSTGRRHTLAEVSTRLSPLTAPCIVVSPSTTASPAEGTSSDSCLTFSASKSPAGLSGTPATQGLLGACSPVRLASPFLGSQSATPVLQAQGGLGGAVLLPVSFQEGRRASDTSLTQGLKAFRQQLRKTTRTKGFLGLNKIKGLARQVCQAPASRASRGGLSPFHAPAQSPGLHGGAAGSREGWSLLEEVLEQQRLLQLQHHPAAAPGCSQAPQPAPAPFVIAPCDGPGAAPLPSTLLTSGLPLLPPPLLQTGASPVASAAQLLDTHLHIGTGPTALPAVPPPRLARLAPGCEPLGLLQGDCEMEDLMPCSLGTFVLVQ
Test [9] deals with Hepatocyte growth factor receptor (Homo sapiens), P08581 [M1250T]. In words: (§1) Selectivity interaction (KinomeScan (DiscoverX)) EUB0001619a MET. The conditions noted are these: at 1 µM.
In test [10] the test system is Hepatocyte growth factor receptor (Homo sapiens), P08581 [Y1235D]. The description is as §1. The conditions noted are these: at 1 µM.
In test [11] the target is Hepatocyte growth factor receptor (Homo sapiens, UniProt P08581). The description is as §1. The conditions noted are these: at 1 µM.
Sequence of Hepatocyte growth factor receptor (P08581 whole entry): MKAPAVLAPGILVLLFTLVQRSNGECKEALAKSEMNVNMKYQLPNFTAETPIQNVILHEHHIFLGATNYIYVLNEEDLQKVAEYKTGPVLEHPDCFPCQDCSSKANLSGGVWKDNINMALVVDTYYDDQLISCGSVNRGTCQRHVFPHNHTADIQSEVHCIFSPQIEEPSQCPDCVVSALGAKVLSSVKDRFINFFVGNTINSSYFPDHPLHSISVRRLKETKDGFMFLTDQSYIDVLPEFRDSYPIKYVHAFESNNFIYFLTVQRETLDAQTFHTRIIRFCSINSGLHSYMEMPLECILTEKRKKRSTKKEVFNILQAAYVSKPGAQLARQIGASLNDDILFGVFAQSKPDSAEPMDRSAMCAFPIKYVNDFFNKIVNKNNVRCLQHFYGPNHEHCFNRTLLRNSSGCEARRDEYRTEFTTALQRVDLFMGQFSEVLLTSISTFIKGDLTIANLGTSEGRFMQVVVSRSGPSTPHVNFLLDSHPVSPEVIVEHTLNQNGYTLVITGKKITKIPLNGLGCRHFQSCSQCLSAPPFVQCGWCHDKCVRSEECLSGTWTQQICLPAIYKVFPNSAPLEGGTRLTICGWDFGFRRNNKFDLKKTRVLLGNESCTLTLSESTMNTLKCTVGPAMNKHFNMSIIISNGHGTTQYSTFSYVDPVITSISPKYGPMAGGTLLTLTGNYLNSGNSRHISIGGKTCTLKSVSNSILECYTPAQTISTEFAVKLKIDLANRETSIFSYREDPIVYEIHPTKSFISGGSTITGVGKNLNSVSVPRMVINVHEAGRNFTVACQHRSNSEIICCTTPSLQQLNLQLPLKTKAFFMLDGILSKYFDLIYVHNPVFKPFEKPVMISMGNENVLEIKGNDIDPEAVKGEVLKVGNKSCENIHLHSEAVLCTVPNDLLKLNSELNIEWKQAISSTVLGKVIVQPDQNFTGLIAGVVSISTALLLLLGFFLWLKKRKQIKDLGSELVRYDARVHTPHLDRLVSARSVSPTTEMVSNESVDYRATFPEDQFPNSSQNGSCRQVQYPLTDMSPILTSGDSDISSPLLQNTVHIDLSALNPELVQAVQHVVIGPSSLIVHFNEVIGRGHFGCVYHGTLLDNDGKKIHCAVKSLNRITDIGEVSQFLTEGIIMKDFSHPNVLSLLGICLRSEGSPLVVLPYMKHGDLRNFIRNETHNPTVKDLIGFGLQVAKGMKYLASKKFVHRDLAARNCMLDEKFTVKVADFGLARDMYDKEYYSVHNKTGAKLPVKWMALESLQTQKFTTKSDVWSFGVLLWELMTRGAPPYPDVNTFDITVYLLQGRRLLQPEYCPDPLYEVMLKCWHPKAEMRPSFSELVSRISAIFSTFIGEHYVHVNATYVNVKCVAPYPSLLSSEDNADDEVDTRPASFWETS
In test [12] the target is T1, Mitogen-activated protein kinase 8. Briefly: Selectivity interaction (Enzymatic assay) EUB0001199aCl MAPK8.
The target in test [13] is Serine/threonine-protein kinase 24 (Homo sapiens) (UniProt Q9Y6E0). Briefly: Selectivity interaction (ActivX KiNativ screen (kinase selectivity in THP-1 cell lysates)) EUB0000639a STK24. The note with it: lysate. Type of test: subcellular.
Sequence of Serine/threonine-protein kinase 24 (Homo sapiens) (Q9Y6E0 whole entry, looked up): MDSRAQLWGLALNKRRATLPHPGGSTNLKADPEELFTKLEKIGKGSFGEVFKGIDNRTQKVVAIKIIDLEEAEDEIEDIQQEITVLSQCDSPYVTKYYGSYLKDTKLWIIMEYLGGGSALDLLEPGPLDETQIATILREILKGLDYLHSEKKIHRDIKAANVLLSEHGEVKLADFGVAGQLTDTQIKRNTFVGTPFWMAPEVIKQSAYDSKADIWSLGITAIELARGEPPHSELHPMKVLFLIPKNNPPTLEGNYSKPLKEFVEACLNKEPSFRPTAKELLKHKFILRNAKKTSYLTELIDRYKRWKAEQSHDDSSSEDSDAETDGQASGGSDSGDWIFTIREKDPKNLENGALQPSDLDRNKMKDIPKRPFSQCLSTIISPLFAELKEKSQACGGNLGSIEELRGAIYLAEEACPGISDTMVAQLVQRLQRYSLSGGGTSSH
The target of test [14] is Casein kinase II subunit alpha (Homo sapiens, UniProt P68400). Briefly: Selectivity interaction (Kinase screening (Upstate/Millipore)) EUB0000604a CSNK2A1.
Sequence of Casein kinase II subunit alpha (P68400 whole entry, looked up): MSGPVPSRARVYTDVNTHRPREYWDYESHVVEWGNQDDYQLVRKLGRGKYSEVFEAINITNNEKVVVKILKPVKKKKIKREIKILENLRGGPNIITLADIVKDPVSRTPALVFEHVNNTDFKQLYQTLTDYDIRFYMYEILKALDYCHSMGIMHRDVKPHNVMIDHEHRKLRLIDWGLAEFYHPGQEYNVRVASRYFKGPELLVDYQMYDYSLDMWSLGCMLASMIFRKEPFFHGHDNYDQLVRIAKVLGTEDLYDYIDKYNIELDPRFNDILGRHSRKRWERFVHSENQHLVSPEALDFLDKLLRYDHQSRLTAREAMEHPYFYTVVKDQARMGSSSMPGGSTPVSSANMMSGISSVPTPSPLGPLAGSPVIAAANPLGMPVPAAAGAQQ
Test [15] deals with Bromodomain testis-specific protein (Homo sapiens) (UniProt Q58F21). Briefly: Selectivity interaction (Human bromodomain panel (DSF assay)) EUB0000233b BRDT. For orientation: DSF heats the sample and reads unfolding from a dye or from intrinsic fluorescence.
For test [16], the target named is Serine/threonine-protein kinase 32B (Homo sapiens) (UniProt Q9NY57). In words: Selectivity interaction (KinomeScan (DiscoverX)) EUB0000045b STK32B.
Sequence of Serine/threonine-protein kinase 32B (Homo sapiens) (Q9NY57 whole entry): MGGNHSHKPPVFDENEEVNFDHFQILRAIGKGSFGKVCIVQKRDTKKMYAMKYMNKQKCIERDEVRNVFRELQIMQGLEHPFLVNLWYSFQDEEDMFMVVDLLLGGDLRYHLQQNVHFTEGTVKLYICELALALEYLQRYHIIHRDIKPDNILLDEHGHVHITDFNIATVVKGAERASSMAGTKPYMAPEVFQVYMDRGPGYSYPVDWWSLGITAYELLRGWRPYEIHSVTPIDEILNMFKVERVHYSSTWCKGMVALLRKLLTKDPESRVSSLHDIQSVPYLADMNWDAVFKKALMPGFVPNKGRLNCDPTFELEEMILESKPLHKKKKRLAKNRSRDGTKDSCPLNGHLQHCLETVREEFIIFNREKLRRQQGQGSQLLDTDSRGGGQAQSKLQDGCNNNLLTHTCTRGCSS
The target of test [17] is T3, Serine/threonine-protein kinase D2 (Homo sapiens) (UniProt Q9BZL6).
T3 sequence (whole entry): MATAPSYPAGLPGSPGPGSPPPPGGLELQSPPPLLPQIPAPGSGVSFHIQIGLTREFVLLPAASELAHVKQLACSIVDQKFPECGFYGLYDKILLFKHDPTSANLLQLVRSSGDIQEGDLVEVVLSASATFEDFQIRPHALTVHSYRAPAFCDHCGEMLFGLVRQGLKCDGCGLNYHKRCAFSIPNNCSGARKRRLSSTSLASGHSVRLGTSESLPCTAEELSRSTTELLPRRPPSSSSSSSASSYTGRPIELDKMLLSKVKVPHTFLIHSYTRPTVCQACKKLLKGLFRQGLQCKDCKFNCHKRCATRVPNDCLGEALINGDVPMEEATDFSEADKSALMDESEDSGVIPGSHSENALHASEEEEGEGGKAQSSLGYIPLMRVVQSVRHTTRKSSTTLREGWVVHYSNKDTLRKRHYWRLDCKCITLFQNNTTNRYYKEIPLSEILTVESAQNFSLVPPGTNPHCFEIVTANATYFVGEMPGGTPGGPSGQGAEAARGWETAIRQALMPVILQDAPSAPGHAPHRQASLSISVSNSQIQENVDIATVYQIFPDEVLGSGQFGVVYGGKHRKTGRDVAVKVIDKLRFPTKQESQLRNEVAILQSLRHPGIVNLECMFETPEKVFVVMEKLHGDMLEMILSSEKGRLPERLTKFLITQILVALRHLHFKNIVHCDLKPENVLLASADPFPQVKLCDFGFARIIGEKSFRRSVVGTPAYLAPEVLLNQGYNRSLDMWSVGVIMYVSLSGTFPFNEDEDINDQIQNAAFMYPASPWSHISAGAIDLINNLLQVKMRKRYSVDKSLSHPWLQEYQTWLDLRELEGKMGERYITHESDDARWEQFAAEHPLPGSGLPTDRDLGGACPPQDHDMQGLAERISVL
Briefly: Selectivity interaction (KinomeScan (DiscoverX)) EUB0000595a PRKD2. The note with it: at 10 µM.

T1 sequence (P45983 whole entry): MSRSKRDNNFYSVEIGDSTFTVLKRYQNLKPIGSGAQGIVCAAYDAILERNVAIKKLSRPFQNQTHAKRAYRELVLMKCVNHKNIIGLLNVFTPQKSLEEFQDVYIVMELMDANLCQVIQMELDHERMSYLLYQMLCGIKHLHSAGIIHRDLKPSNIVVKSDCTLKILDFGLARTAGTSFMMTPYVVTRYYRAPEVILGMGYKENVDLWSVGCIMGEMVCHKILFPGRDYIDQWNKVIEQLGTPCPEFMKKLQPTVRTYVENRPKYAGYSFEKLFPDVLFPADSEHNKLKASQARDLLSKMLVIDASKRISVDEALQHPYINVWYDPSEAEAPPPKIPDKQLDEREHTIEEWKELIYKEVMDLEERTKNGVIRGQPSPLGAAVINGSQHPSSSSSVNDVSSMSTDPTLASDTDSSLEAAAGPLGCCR
Sequence of Serine/threonine-protein kinase 26 (Q9P289 2-416 limits assumed): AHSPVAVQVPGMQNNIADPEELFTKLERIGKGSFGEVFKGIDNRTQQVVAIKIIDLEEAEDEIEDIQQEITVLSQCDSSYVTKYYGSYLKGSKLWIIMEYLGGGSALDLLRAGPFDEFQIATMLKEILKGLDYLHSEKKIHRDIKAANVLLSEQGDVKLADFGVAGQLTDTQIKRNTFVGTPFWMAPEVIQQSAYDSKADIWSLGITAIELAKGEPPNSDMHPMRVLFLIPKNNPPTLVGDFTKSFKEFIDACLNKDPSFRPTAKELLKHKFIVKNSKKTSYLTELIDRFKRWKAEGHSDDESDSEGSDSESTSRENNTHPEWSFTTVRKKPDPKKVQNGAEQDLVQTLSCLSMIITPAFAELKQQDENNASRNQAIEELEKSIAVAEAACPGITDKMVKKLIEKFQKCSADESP
Sequence of RAC-alpha serine/threonine-protein kinase (P31749 whole entry): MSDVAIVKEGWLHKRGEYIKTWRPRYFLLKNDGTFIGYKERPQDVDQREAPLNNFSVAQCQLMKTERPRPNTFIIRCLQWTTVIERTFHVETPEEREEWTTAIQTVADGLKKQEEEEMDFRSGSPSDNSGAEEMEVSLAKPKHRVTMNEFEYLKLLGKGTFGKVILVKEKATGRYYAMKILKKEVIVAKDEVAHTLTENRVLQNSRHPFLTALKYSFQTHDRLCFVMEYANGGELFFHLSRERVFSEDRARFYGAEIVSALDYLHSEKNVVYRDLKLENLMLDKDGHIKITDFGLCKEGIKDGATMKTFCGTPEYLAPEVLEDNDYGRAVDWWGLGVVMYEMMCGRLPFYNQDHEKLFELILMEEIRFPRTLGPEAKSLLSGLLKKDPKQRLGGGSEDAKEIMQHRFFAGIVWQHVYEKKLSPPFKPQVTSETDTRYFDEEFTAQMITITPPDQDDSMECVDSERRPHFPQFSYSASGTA

`CNC(=O)Nc1ccc(-c2nc(N3CC4CCC(C3)O4)c3cnn(C4CCC5(CC4)OCCO5)c3n2)cc1`: the values for the % of control in test [1] and in test [2] were 81% and 70%, respectively. Also, the % of inhibition in test [3] was 5%. In test [4], `Cc1cc([C@@H](C)Nc2ccccc2C(=O)O)c2nc(N3CCOCC3)cc(=O)n2c1` [AZD-6482] returned a % of control of 70%. `COc1cc(N(C)c2ccnc3ccc(C(F)(F)F)cc23)cc(OC)c1OC` registered a % binding in [5] of 72%. In the case of `CN(C)CCOc1ccc(-c2nc(-c3ccncc3)c(-c3ccc4c(c3)CC/C4=N\O)[nH]2)cc1`, the % of control is 100% in [6] and 52% in test [7].

`Nc1cnc(N2CCc3cc(S(=O)(=O)Nc4c(F)cc(Cl)cc4F)cc(N4CCCC4=O)c32)nc1` [TP-020n] registered a % of control in [8] of 100%. For the molecule `N#Cc1cccc(-c2c[nH]c3ncnc(N4CCOCC4)c23)c1`, the % of control in test [9] came to 96%; in test [10], 93%; in [11] it was 93%. On to `CN1Cc2nccc(-c3cn(C)nc3-c3ccc(F)cc3)c2C1=O`, for which 1.02 µM corresponded to half-maximal inhibition in test [12] (IC50). In the case of `CC[C@@H]1[C@H](F)C(=O)N[C@@H]1COc1nccc2cc(C(N)=O)c(OC)cc12` [ZIMLOVISERTIB], the % of inhibition in [13] (at 0.01 µM) was 3.4%; in test [13] (at 0.04 µM) it was -19.7%; in [13] (at 0.2 µM), -5.9%; in [13] (at 1 µM) it was 6%; in [13] (at 5 µM), 5.4%.

`Cc1cnc(Nc2ccc(F)cc2Cl)nc1-c1c[nH]c(C(=O)N[C@H](CO)c2cccc(Cl)c2)c1`: the % of inhibition in test [14] amounted to 0%. Take `CN(C)CCCOc1ccc(-c2cc(NCCCn3cccn3)nc(S(C)(=O)=O)n2)cc1`: in test [15], the dTM is < 2 K. With `C=CC(=O)Nc1cc(-n2c(=O)ccc3cnc4ccc(-c5ccc(NS(C)(=O)=O)cc5)cc4c32)ccc1C`, the % of control in test [16] (at 1 µM) and in test [16] (at 10 µM) was 100% throughout. `COCC(=O)NC/C=C/c1ccc2ncnc(Nc3ccc(Oc4ccc(C)nc4)c(C)c3)c2c1` [CP-724714] displayed a % of control in test [17] of 97%.
